Results: US4355101A, “Phenylmercaptoazole compounds” (Polaroid Corporation, priority 1981, dated 1982)
Where two headings read alike, the source gives them in different places.

Legend:
[1] = pKa of substituents on the phenyl ring, measured for unblocked phenylmercaptotetrazole compounds; type: physicochemical; settings: substituent on phenyl ring of unblocked phenylmercaptotetrazole
Text: Table I lists the pKa of various substituents on the phenyl ring as measured for unblocked phenylmercaptotetrazole compounds.

[2] = Solubility of the silver salts in the presence of excess amounts of their anions; type: physicochemical; settings: for Solubility of silver salt (total silver): 4×10^-3 molar in silver
Procedure: The solubilities of the silver salts of PMT and compound VIII in the presence of excess amounts of their anions were measured at pH 7.0 and 13.5. Each solution was 4×10^-3 molar in silver. The results are shown in Table III wherein the solubility data is expressed in μ moles/liter of total silver.

[3] = Solubility product of the silver salt; type: physicochemical; settings: for Effect of pH / ionization on solubility of the silver salt: pH 7 vs pH 13.5
[4] = pH 7; Z.C.H. Tan, Photogr. Sci. Eng. 19, 17 (1975); cited from earlier work
[5] = Molar ratio Compound/Ag 1.25/1, pH 7.0
[6] = Molar ratio Compound/Ag 1.25/1, pH 13.5
[7] = Molar ratio Compound/Ag 1.75/1, pH 7.0
[8] = Molar ratio Compound/Ag 1.75/1, pH 13.5
[9] = Molar ratio Compound/Ag 2.13/1, pH 7.0
[10] = Molar ratio Compound/Ag 2.13/1, pH 13.5
[11] = Molar ratio Compound/Ag 2.5/1, pH 7.0
[12] = Molar ratio Compound/Ag 2.5/1, pH 13.5
[13] = Molar ratio Compound/Ag 4.5/1, pH 7.0
[14] = Molar ratio Compound/Ag 4.5/1, pH 13.5
[15] = Molar ratio Compound/Ag 7.5/1, pH 7.0
[16] = Molar ratio Compound/Ag 7.5/1, pH 13.5

CC(=NO)c1ccc(-n2nnnc2S)cc1 [drawing 14]
pKa [1]: 11.4

CS(=O)(=O)Nc1ccc(-n2nnnc2S)cc1 [(p) NHSO2 CH3]
pKa [1]: 8.65 ± 0.1

CC(=NO)c1ccc(-n2nnnc2S)cc1 [IX]
Solubility of silver salt (total silver) [2, 5]: < 1 μ moles/liter
Solubility of silver salt (total silver) [2, 6]: 19 μ moles/liter
Solubility of silver salt (total silver) [2, 7]: < 1 μ moles/liter
Solubility of silver salt (total silver) [2, 8]: 44 μ moles/liter
Solubility of silver salt (total silver) [2, 9]: < 1 μ moles/liter
Solubility of silver salt (total silver) [2, 10]: 93 μ moles/liter
Solubility of silver salt (total silver) [2, 11]: 2 μ moles/liter
Solubility of silver salt (total silver) [2, 12]: 140 μ moles/liter
Solubility of silver salt (total silver) [2, 13]: 2 μ moles/liter
Solubility of silver salt (total silver) [2, 14]: 320 μ moles/liter
Solubility of silver salt (total silver) [2, 15]: 5 μ moles/liter
Solubility of silver salt (total silver) [2, 16]: 1400 μ moles/liter
Silver solvent action ([2]; high pH): weak to moderate silver solvent
Solubility of silver salt compared with PMT ([2]; neutral solution): even less soluble salt in neutral solution than does PMT
Ksp of silver salt ([3]; pH 7): ~ 1 × 10^-16
Effect of pH / ionization on solubility of the silver salt [3]: increased the solubility of the silver salt of the compound VIII by an order of magnitude
Ksp of silver salt ([3]; pH 13.5): 2 × 10^-15

Cc1ccc(S(=O)(=O)Nc2ccc(-n3nnnc3S)cc2)cc1
pKa [1]: 8.8 ± 0.1

Oc1ccccc1-n1nnnc1S [(o) OH]
pKa [1]: 9.5 ± 0.1

Oc1ccc(-n2nnnc2S)cc1 [(p) OH, 1-(4-hydroxyphenyl)-5-mercaptotetrazole]
pKa [1]: 10.1 ± 0.1

Sc1nnnn1-c1ccccc1 [PMT, 1-phenyl-5-mercaptotetrazole]
Solubility of silver salt (total silver) [2, 5]: < 1 μ moles/liter
Solubility of silver salt (total silver) [2, 6]: 1 μ moles/liter
Solubility of silver salt (total silver) [2, 7]: < 1 μ moles/liter
Solubility of silver salt (total silver) [2, 8]: 2 μ moles/liter
Solubility of silver salt (total silver) [2, 9]: 1 μ moles/liter
Solubility of silver salt (total silver) [2, 10]: 4 μ moles/liter
Solubility of silver salt (total silver) [2, 11]: 3 μ moles/liter
Solubility of silver salt (total silver) [2, 12]: 8 μ moles/liter
Solubility of silver salt (total silver) [2, 13]: 15 μ moles/liter
Solubility of silver salt (total silver) [2, 14]: 18 μ moles/liter
Solubility of silver salt (total silver) [2, 15]: 58 μ moles/liter
Solubility of silver salt (total silver) [2, 16]: 63 μ moles/liter
Ksp of silver salt [4]: ~3 × 10^-16
Effect of pH / ionization on solubility of the silver salt [3]: relatively unaffected by pH
Ksp of silver salt ([3]; pH 13.5): 4 × 10^-16

NS(=O)(=O)c1ccc(-n2nnnc2S)cc1 [(p) SO2 NH2, 1-(4-sulfonamidophenyl)-5-mercaptotetrazole]
pKa [1]: 9.95 ± 0.1

O=S(=O)(Nc1ccccc1)c1ccc(-n2nnnc2S)cc1
pKa [1]: 9.55 ± 0.1

CNS(=O)(=O)c1ccc(-n2nnnc2S)cc1 [(p) SO2 NHCH3]
pKa [1]: 11.55 ± 0.1
